Key:
Format in all cases: cell-based
[1] = biological target: T1, MRGPRX2 (Homo sapiens, UniProt Q96LB1); test: MRGPRX2 IP1 HTRF assay; design: host or cells: CHO-K1; conditions: CHO-K1 cells stably expressing human MRGPRX2; IP1 accumulation; agonist Cortistatin 14 1 μM
T1 sequence (Q96LB1 1-330): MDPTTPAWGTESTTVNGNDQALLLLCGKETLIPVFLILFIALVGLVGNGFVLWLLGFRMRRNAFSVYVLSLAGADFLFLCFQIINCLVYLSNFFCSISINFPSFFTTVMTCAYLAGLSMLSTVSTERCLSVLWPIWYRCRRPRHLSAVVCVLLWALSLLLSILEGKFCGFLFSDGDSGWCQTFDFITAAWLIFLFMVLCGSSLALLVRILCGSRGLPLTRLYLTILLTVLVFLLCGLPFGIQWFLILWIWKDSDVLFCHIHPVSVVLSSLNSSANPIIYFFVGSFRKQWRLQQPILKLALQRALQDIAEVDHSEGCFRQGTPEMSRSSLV
Method: This assay measures compound inhibition of myo-Inositol 1 phosphate (IP1) accumulation in CHO-K1 cells. Chinese hamster ovary (CHO-K1) cells stably expressing human MRGPRX2 were purchased from GenScript (Piscataway, NJ).
For the HTRF IP1 determination, an IP-One GqKit (Perkin Elmer Cisbio, Waltham, MA), which includes all reagents and buffers in this protocol, was used. The cells were maintained in culture medium (Ham's F-12K) containing 10% (v/v) FBS, and 200 μg/mL Zeocin. For the assay, the cells were harvested and resuspended in culture medium with 2% FBS and without Zeocin, then were passed through a 40 μm filter. Cells were added at 20000 cells in a 5 μL/well to a 384-well white small volume cell culture plate (Greiner VWR, Radnor, PA) which contained 50 nL/well of test compound serially diluted at a selected concentration range in DMSO. 5 μL/well of prepared 2× Stimulation Buffer 2 was then added to plates and was incubated at 37° C. with 5% CO2 for 1 h. 5 μL/well of agonist Cortistatin 14 (Bio-TechneR&D Systems, Minneapolis, MN) in 1× Stimulation Buffer 2, for a 1 μM final concentration, was then added to plates and incubated at 37° C. with 5% CO2 for 1 h. 6 μL/well of 1:20 diluted Detection Reagent Mix (d2 and Cryptate) was added to the plates and incubated for 1 h in the dark. Plates were read on the PHERAstar microplate reader (BMG Labtech Cary, NC) to determine the HTRF ratio of the acceptor and donor emission signals. The IP1 concentrations were calculated from a standard curve following the IP-One GQ kit instructions. Wells with DMSO only and wells with high concentration of reference antagonist were used as controls for normalization. Compound IC50 curves were globally fitted with 3- or 4-parameter Hill equation in a Genedata Screener (Genedata Basel, Switzerland).

[2] = biological target: T1, MRGPRX2; test: MRGPRX2 β-Arrestin assay; design: host or cells: PathHunter CHO-K1; conditions: PathHunter CHO-K1 MRGPRX2 β-Arrestin cell line; agonist Cortistatin 14 0.25 μM
Source text: This assay measures compound inhibition of β-Arrestin recruitment, which is part of the G protein-independent pathway that results from the ligand-activated GPCR phosphorylation by specific GPCR kinases. The PathHunter CHO-K1 MRPGRX2 β-Arrestin Cell line stably expressing ProLink tagged MRGPRX2 and Enzyme Acceptor Tagged β-Arrestin was purchased from Eurofins DiscoverX, (Fremont, CA).
The cells were maintained in culture medium from the Europhins DiscoverX Cell Culture Kit-107 which includes FBS, hygromycin B and G418. For the assay, the cells were harvested and were resuspended with Cell Plating Reagent 2 (Eurofins DiscoverX). Cells were added 10000 cells in 25 μL/well to a 384-well black cell culture plate (Greiner VWR, Radnor, PA) which contained 125 nL/well of compound at a selected serially diluted concentration range or DMSO. The plate was incubated at 37° C. with 5% CO2 for 1 h. 2 μL/well of agonist Cortistatin 14 was diluted in Protein Dilution Buffer, (Eurofins DiscoverX) for a final concentration of 0.25 μM, was added and the plate was incubated at 37° C. with 5% CO2 for 90 min. 14 μL/well of Detection Reagent Mix (PathHunter Detection Kit, Eurofins DiscoverX) was added to the plates and further incubated for 1 h in the dark. Plates were read on the PHERAstar microplate reader (BMG Labtech Cary, NC) measuring luminescence 0.1 to 1 s per well. Data was normalized using DMSO only wells and wells with high concentration of reference antagonist as controls. Compound IC50 curves were globally fitted with 3- or 4-parameter Hill equation in a Genedata Screener (Genedata Basel, Switzerland).

[3] = biological target: T1, MRGPRX2; test: MRGPRX2 FLIPR calcium mobilization assay; design: host or cells: CHO-K1; conditions: CHO-K1 cells stably expressing human MRGPRX2; Ca2+ release; agonist Cortistatin-14 at EC80
Method: Chinese hamster ovary (CHO-K1) cells stably expressing human MRGPRX2 were purchased from Genescript (Piscataway, NJ). The cells were maintained in culture medium (Ham's F-12K) containing 10% (v/v) FBS, 200 μg/mL Zeocin, 100 units/mL penicillin G and 100 μg/mL streptomycin (Life Technologies, Carlsbad, CA). For the assay, the cells were harvested and resuspended with culture medium without Zeocin before plating at 8000 cells per well in 20 μL in 384-well black clear bottom cell culture plates (VWR, Radnor, PA). After 24 hour culture at 37° C. and 5% CO2, the cells were loaded with 20 μL/well of calcium dye (FLIPR Calcium 6 Assay Kit, Molecular Devices, San Jose, CA) diluted in loading buffer (1× Hank's Balanced Salt Solution (HBSS), 5 mM probenecid, 20 mM 4-(2-hydroxyethyl)-1-piperazineethanesulfonic acid (HEPES), pH 7.4, VWR, Radnor, PA) followed with 45 min incubation at 37° C. and 40 min. at r.t. in the dark. Cells were then treated with the addition of 10 uL/well test compounds with a range of increasing concentrations diluted in the assay buffer (1×HBSS, 20 mM HEPES, pH 7.4, VWR, Radnor, PA) with FLIPR Penta (Molecular Devices. San Jose, CA) and incubated for 30 min. at r.t. Ca^2+ release was measured with FLIPR Penta with 10 s basal fluorescence measurement, then 12.5 μL of 5× agonist Cortistatin-14 (Tocris, Minneapolis, MN) at final concentration corresponding to the EC80 were added followed with continued fluorescence signal monitoring for an additional 110 s. The base line adjusted (median of first 10 s base line) max value of the Relative Fluorescence Unit (RFU) was plotted against compound concentrations. Wells with no compound were served as the positive controls, and wells with high concentration of reference antagonist were used as negative controls. IC50 curves were globally fitted with 3- or 4-parameter Hill equation in a Genedata Screener (Genedata Basel, Switzerland).

Measured: IC50

Cc1ccc2nc(C(F)(F)F)cc(N[C@H]3CCC[C@@H](Nc4nccc5ncn(C)c45)C3)c2c1 [Example 17, (1S,3R)-N^1-(6-Methyl-2-(trifluoromethyl)quinolin-4-yl)-N^3-(3-methyl-3H-imidazo[4,5-c]pyridin-4-yl)cyclohexane-1,3-diamine]
0.1 to 100 nM: all assays above

FC(F)(F)c1cc(N[C@H]2CCC[C@@H](Nc3nnc4ccccn34)C2)c2cc(Cl)ccc2n1 [Example 24, (1R,3S)-N^1-([1,2,4]Triazolo[4,3-a]pyridin-3-yl)-N^3-(6-chloro-2-(trifluoromethyl)quinolin-4-yl)cyclohexane-1,3-diamine]
0.1 to 100 nM: all assays above

FC(F)(F)c1cc(N[C@H]2CCC[C@@H](Nc3nnc4n3CCCC4)C2)c2cc(Cl)ccc2n1 [Example 35, (1S,3R)-N^1-(6-Chloro-2-(trifluoromethyl)quinolin-4-yl)-N^3-(5,6,7,8-tetrahydro-[1,2,4]triazolo[4,3-a]pyridin-3-yl)cyclohexane-1,3-diamine]
0.1 to 100 nM: all assays above

Cn1ncc2c(N[C@@H]3CCC[C@H](Nc4cc(C(F)(F)F)nc5ccc(Cl)cc45)C3)nccc21 [Example 19, (1S,3R)-N^1-(6-Chloro-2-(trifluoromethyl)quinolin-4-yl)-N^3-(1-methyl-1H-pyrazolo[4,3-c]pyridin-4-yl)cyclohexane-1,3-diamine]
0.1 to 100 nM: all assays above

Cn1c(C#N)cnc1N[C@@H]1CCC[C@H](Nc2cc(C(F)(F)F)nc3ccc(Cl)cc23)C1 [Example 20, 2-(((1R,3S)-3-((6-Chloro-2-(trifluoromethyl)quinolin-4-yl)amino)cyclohexyl)amino)-1-methyl-1H-imidazole-5-carbonitrile]
0.1 to 100 nM: all assays above

Fc1ccc2nc(C(F)(F)F)cc(N[C@H]3CCC[C@@H](Nc4nnc5ccccn45)C3)c2c1 [Example 33, (1R,3S)-N^1-([1,2,4]Triazolo[4,3-a]pyridin-3-yl)-N^3-(6-fluoro-2-(trifluoromethyl)quinolin-4-yl)cyclohexane-1,3-diamine]
0.1 to 100 nM: all assays above

Cn1cnc2ccnc(N[C@@H]3CCC[C@H](Nc4cc(C(F)(F)F)nc5ccc(Br)cc45)C3)c21 [Example 16, (1S,3R)-N^1-(6-Bromo-2-(trifluoromethyl)quinolin-4-yl)-N^3-(3-methyl-3H-imidazo[4,5-c]pyridin-4-yl)cyclohexane-1,3-diamine]
0.1 to 100 nM: all assays above

Cn1cnc2ccnc(N[C@@H]3CCC[C@H](Nc4cc(C(F)(F)F)nc5ccc(F)cc45)C3)c21 [Example 14, (1S,3R)-N^1-(6-Fluoro-2-(trifluoromethyl)quinolin-4-yl)-N^3-(3-methyl-3H-imidazo[4,5-c]pyridin-4-yl)cyclohexane-1,3-diamine]
0.1 to 100 nM: all assays above

Reference: patent US20250270208A1, “BICYCLIC HETEROCYCLES AS MRGPRX2 ANTAGONISTS” (Incyte Corporation, priority 2023, published 2025)
